Numbers after ± are expanded uncertainties.
Experiment: activity coefficient (dimensionless); of the first substance listed, at infinite dilution; xn = mol fraction of the nth substance listed
Details: 101 kPa, Liquid, x1 = 0

SMILES	activity coefficient (273.35 K, Inert gas stripping)	activity coefficient (283.15 K, Inert gas stripping)	activity coefficient (293.15 K, Inert gas stripping)	activity coefficient (298.15 K, Inert gas stripping)	activity coefficient (303.15 K, Inert gas stripping)	activity coefficient (313.15 K, Inert gas stripping)	activity coefficient (323.15 K, Inert gas stripping)	activity coefficient (333.15 K, Inert gas stripping)	activity coefficient (293.15 K, Headspace solid-phase microextraction)	activity coefficient (298.15 K, Headspace solid-phase microextraction)	activity coefficient (303.15 K, Headspace solid-phase microextraction)
CCOC(=O)OCC [diethyl carbonate] + O	246 ± 1	299 ± 1	353 ± 1	374 ± 1	394 ± 1	408 ± 1	394 ± 1	388 ± 1	–	–	–
C=COC(C)=O [vinyl acetate] + O	150 ± 1	161 ± 1	177 ± 1	181 ± 1	187 ± 1	190 ± 1	194 ± 1	187 ± 1	–	–	–
COC(=O)OC [dimethyl carbonate] + O	37.6 ± 0.2	43.8 ± 0.1	46.3 ± 0.1	48 ± 0.1	49.3 ± 0.1	50 ± 0.1	50.9 ± 0.1	50.3 ± 0.1	–	–	–
C=C(C)C(=O)OC [methyl methacrylate] + O	283 ± 1	321 ± 1	366 ± 1	380 ± 1	390 ± 1	403 ± 1	403 ± 1	394 ± 1	380 ± 1	389 ± 1	382 ± 1

— the NIST ThermoML archive (doi:10.1016/j.fluid.2010.05.010)
